System: RV SA11 strain
Assay: RV SA11 diarrhea model in suckling mice
Assay type: in vivo, BALB/c suckling mice
Conditions: for infectious RV particles and viral antigens in intestinal contents, transcription of RV VP6 in intestinal epithelial cells: compared to controls
Method: BALB/c mice were purchased from Gempharmatech Inc. (Suzhou, China) and housed under SPF conditions (22 ± 1°C, 12 h light/dark cycle). Suckling mice were obtained by mating male and female adult BALB/c mice (12- to 16-week-old). Only the 7-day-old BALB/c suckling mice with body weights ranging from 2.5 g to 4.5 g were selected for RV diarrhea models. For induction of RV diarrhea, 1 × 10^6 PFU of SA11 strain or 10 × DD50 of EDIM strain in 20 µL PBS was orally inoculated using a pipette tip to 7-day-old BALB/c suckling mice regardless of their sexes, as sex has no significant influence on RV diarrhea occurrence. We used a scoring system to evaluate fecal consistency and color as described with some modification ([27]): no stool or brown formed stool (1 point); brown soft stool (2 points); yellow soft stool (3 points); and yellow watery stool (4 points). Mice with scores of ≥2 meant diarrhea occurrence, while mice with scores of 1 meant no diarrhea. At the end of each experiment, all infected or drug-treated suckling mice were humanely euthanized via CO2 asphyxiation.
Seven-day-old BALB/c suckling mice meeting the weight criteria within each litter were randomly assigned to experimental groups. Each litter was allocated to ensure one to three suckling mice per experimental group (variations dependent on the total number of groups). Data from suckling mice assigned to the same group across multiple litters were aggregated to achieve a total sample size of n = 3–6 per experimental group. Then, the suckling mice were orally inoculated with 1 × 10^6 PFU of the SA11 strain or 10 × DD50 of the EDIM strain, or with an equal amount of PBS as mock infection. For SA11 infection, the suckling mice were orally treated once with indicated doses of drugs or with an equal volume of DMSO as control at 2 h p.i. For EDIM infection, the suckling mice were orally treated with 0.2 mg/kg/day NVP-HSP990, 30 mg/kg/day ribavirin, or an equal amount of DMSO as control from 2 days post-infection (d p.i.) to indicated time points. Diarrhea scores and body weight were monitored from day 0 to day 7 post-infection in the SA11 infection model, and from day 0 to day 9 post-diarrhea occurrence (2–11 d p.i.) in the EDIM infection model. Blinding was applied throughout data collection and analysis.
The RV-infected suckling mice were sacrificed by CO2 asphyxiation at the indicated times, and small intestines (including duodenum, jejunum, and ileum) or colon was homogenized in 0.3 mL DMEM, centrifuged at 12,000 × g for 5 min at 4°C, and the supernatant was collected. Virus contents in the supernatant were titrated with PFA as described above. Viral antigens in the supernatant were detected with enzyme-linked immunosorbent assay (ELISA) kits for RV (CUSABIO, China) following the manufacturer’s instructions. For qPCR analysis of RV protein expression, the intestines were longitudinally split and washed in 1 mL DMEM by shaking for 30 s. Then, the tissues were cut into 0.5 cm segments, incubated in Hank’s buffer containing 2.5 mM EDTA-Na2 and 1 mM dithiothreitol (Sangon Biotech, China) at 37°C with rotation at 200 rpm for 30 min, filtered with a 70 µm strainer. Then the epithelial cells were pelleted by centrifugation at 500 × g for 5 min, purified with 20% Percoll (Cytiva, Sweden), and lysed in Trizol for RNA extraction and further qPCR analysis.
The jejunum and ileum of suckling mice were fixed in 4% paraformaldehyde for 24 h, washed with PBS twice, and then subjected to paraffin embedding and slicing at 5 µm thickness. The sections were stained with hematoxylin and eosin (Beyotime, China) and observed with an Olympus BX51 microscope, and the data were processed by CaseViewer 2.4 software. For immunohistochemistry analysis, the fixed tissues were dehydrated in 30% sucrose, embedded in Optimal Cutting Temperature compound, frozen with liquid nitrogen, and cryosliced at 10 µm thickness. […]

[1] = 1 mg/kg oral, once, 0 to 7 days post-infection
[2] = oral, once at 2 h p.i., 24 h p.i., 1 × 10^6 PFU SA11

With `COc1cccc(-c2cc(F)ccc2[C@H]2Cc3nc(N)nc(C)c3C(=O)N2)n1` [NVP-HSP990] the “body growth of RV-infected suckling mice” value [1] was “did not hinder”, the “diarrhea of RV-infected suckling mice” value [1] was “significantly alleviated” and the “RV-induced foamy degeneration in the ileal epithelium” value (SA11-infected mice, 1 mg/kg oral, 16 h p.i., hematoxylin/eosin) was “markedly attenuated”. The “infectious RV particles and viral antigens in intestinal contents, transcription of RV VP6 in intestinal epithelial cells” value (duodenum, 1 mg/kg oral, 16 h p.i.) was “no significant differences”, the “infectious RV particles and viral antigens in intestinal contents, transcription of RV VP6 in intestinal epithelial cells” value (jejunum and ileum, 1 mg/kg oral, 16 h p.i.) was “remarkably reduced” and the “pathological changes in the ileum” value (mock-infected mice, NVP-HSP990 treatment alone, 1 mg/kg oral, hematoxylin/eosin) was “no appreciable pathological changes”. The “ED50 for RV diarrhea occurrence” value [2] was 0.1423 mg/kg and the “ED50 for diarrhea score reduction” value [2] was 0.1355 mg/kg.
